Laboratory results taken from patent US4704403A, “3-(2,2,2-trisubstituted hydrazinium) propionates” (priority 1983, dated 1987).

Experiments:
[1] = Acute toxicity upon intraperitoneal administration to white mice; format: in vivo; settings: mouse, in vivo, ip, 14 days observation, average values with confidential limits at P=0.05
Method: (§1) The acute toxicity of the compounds according to the present invention was studied on white mice of both sexes with a mass of 20-25 g. A saturated aqueous solution of the compounds or a suspension in Tween-80 was administered to the animals intraperitoneally. The observation over the animals was carried out for 14 days. The results obtained were processed following the Litchfield-Wilkoxon method. As it follows from the data shown in Table 5 hereinbelow, the studied compounds have a very low acute toxicity, thus providing a large spectrum of the therapeutic effect.

white mice = test: as above; format: in vivo; settings: i.p.
Method: as §1

[2] = system: arrhythmia caused by introduction of calcium chloride; test: Antiarrhythmic activity on the model of arrhythmia caused by calcium chloride (antagonism towards calcium); format: in vivo, mice; settings: for Dose of calcium chloride causing arrhythmia: control 85.0; for Dose of calcium chloride causing heart arrest: control 100.0
Method: In experiments on white mice with a mass of 18-25 g narcotized with urethane an electrocardiogram was recorded in the second standard lead. A 2% solution of calcium chloride was introduced into the tail vein at a constant rate (0.01 ml for 2 seconds). The dose of calcium chloride causing arrhythmia and the dose causing heart arrest were determined. In experimental groups the test compounds were administered 20-40 minutes prior to the beginning of the experiment intraperitoneally.

[3] = system: adrenaline-caused arrhythmia; test: Adrenaline-caused arrhythmia in narcotized guinea pigs; format: in vivo; settings: for ED50: Cavia porcellus, iv, intravenously, dose giving antiarrhythmic effect in 50% of the experiments
Method: A further study of the antiarrhythmic activity of the compounds according to the present invention was connected with the determination of their effect on experimental arrhythmia induced by adrenaline.
Guinea pigs of both sexes with a mass of 400-700 g were narcotized with urethane (1,500 mg/kg intraperitoneally) The standard second-lead electrocardiogram was recorded. Arrhythmia was caused by a rapid injection (intravenously) of adrenaline in the dose of […]. To find out the protective antiarrhythmia effect of the compounds according to the present invention, the number of animals in which the total number of ectopic contractions was reduced by 50% and more as compared to the control experiments was recorded. […] The results obtained in this study of the antiarrhythmic properties of some of the compounds according to the present invention and novocainamide on the adrenaline model of arrhythmia are shown in Table 7.

[4] = system: hypertensive male rats of the Akamoto-Aoki line; test: Variation of arterial pressure upon intraperitoneal administration to hypertensive rats; format: in vivo
Method: The study of hypotensive properties of the compounds of this invention has been carried out of hypertensive male rats of the Akamoto-Aoki line aged 25-30 weeks. The animals were divided into groups (7-10 rats in each) and for 2 weeks before the beginning of the experiment they were subjected to an every-day training for adaptation to the unit for measurements of the arterial pressure. The systolic and diastolic arterial pressure were measured indirectly on the tail artery. The level of the arterial pressure prior to administration of the test compounds was measured by way of a triple determination thereof--2 days, one day and right before the administration of the preparation. The compounds were administered intraperitoneally in the form of a 2.5% aqueous solution or a 2.5% suspension in Twin-80 in the dose of 50 mg/kg. The measurement of the arterial pressure was effected 30 minutes, 1, 2, 3 and 4 hours and in some cases 24 hours after the administration of the preparation. For a number of compounds featuring a high efficiency, also determined was the dose causing reduction of the arterial pressure by 30% as compared with the starting level (ED30). The statistical processing of the data obtained was carried out using the Student certainty criterion.

[5] = system: spontaneously hypertensive rats of the Akamoto-Aoki line; test: Hypotensive activity on spontaneously hypertensive rats at a single peroral administration; format: in vivo; settings: for Systolic arterial pressure: ethyl 40 mg/kg (initial 198), benzyl 40 mg/kg (initial 196)
[6] = system: spontaneously hypertensive rats of the Akamoto-Aoki line; test: Systolic arterial pressure of spontaneously hypertensive rats upon a repeated peroral administration; format: in vivo
Method: Thus, after a four-days course of administration (once a day, per os) of the compounds according to the present invention an essential reduction of the arterial pressure in the test animals is observed which is not returned to the initial level even an expiration of four days after discontinuation of the preparation administration, whereas the hypotensive effect of nifedipine is manifested for only 8 hours.

[7] = 30 minutes, 50 mg/kg i.p. (nifedipine 1 mg/kg i.p.)
[8] = 1 hour, 50 mg/kg i.p. (nifedipine 1 mg/kg i.p.)
[9] = 2 hours, 50 mg/kg i.p. (nifedipine 1 mg/kg i.p.)
[10] = 4 hours, 50 mg/kg i.p. (nifedipine 1 mg/kg i.p.)
[11] = 1 hour after single p.o., ethyl 40 mg/kg, benzyl 40 mg/kg
[12] = 3 hours after single p.o., allyl 50 mg/kg (initial 184)
[13] = 3 hours after single p.o., ethyl 40, allyl 50, benzyl 40 mg/kg
[14] = 5 hours after single p.o., allyl 50 mg/kg (initial 184)
[15] = 5 hours after single p.o., ethyl 40, allyl 50, benzyl 40 mg/kg
[16] = 24 hours after single p.o., allyl 50 mg/kg (initial 184)
[17] = 24 hours after single p.o., ethyl 40, allyl 50, benzyl 40 mg/kg
[18] = after four-days p.o. course, benzyl 40 mg/kg, allyl 50 mg/kg, nifedipine dose not given
[19] = p.o. once a day, benzyl 40 mg/kg, allyl 50 mg/kg, nifedipine dose not given
[20] = p.o., benzyl 40 mg/kg, allyl 50 mg/kg, nifedipine dose not given

CCN(CC)CCNC(=O)c1ccc(N)cc1 [Novocainamide, reference compound]
LD50 at 336 h [1]: 290 mg/kg
Relative toxicity with respect to quinidine (LD50 / LD50 of quinidine) (white mice): 1.85
Dose of calcium chloride causing arrhythmia ([2]; compound dose 10 mg/kg i.p.): 116.0
Dose of calcium chloride causing heart arrest ([2]; compound dose 10 mg/kg i.p.): 120.0
Dose of calcium chloride causing arrhythmia ([2]; compound dose 30 mg/kg i.p.): 127.0
Dose of calcium chloride causing heart arrest ([2]; compound dose 30 mg/kg i.p.): 138.0
Efficiency (animals with ectopic contractions reduced by 50% and more) ([3]; 2.5 mg/kg intravenously): 1/5
Efficiency (animals with ectopic contractions reduced by 50% and more) ([3]; 5.0 mg/kg intravenously): 1/5
Efficiency (animals with ectopic contractions reduced by 50% and more) ([3]; 10.0 mg/kg intravenously): 3/5
Efficiency (animals with ectopic contractions reduced by 50% and more) ([3]; 20.0 mg/kg intravenously): 5/5
ED50 [3]: 7.6 mg/kg

C[N+](C)(Cc1ccccc1)NCCC(=O)[O-] [3-(2,2-dimethyl-2-benzylhydrazinium)propionate]
Average variation of the diastolic arterial pressure [4, 7]: -14 % of the initial
Average variation of the systolic arterial pressure [4, 7]: -14 % of the initial
Average variation of the diastolic arterial pressure [4, 8]: -14 % of the initial
Average variation of the systolic arterial pressure [4, 8]: -14 % of the initial
Average variation of the diastolic arterial pressure [4, 9]: -21 % of the initial
Average variation of the systolic arterial pressure [4, 9]: -15 % of the initial
Average variation of the diastolic arterial pressure [4, 10]: -21 % of the initial
Average variation of the systolic arterial pressure [4, 10]: -14 % of the initial
Average variation of the diastolic arterial pressure ([4]; 24 hours, 50 mg/kg i.p.): -15 % of the initial
Average variation of the systolic arterial pressure ([4]; 24 hours, 50 mg/kg i.p.): -9 % of the initial
Systolic arterial pressure ([5]; 1 hour after single p.o.): 155 mm Hg
Systolic arterial pressure, percent in parentheses (decrease from initial) [5, 11]: 21%
Systolic arterial pressure [5, 12]: 150 mm Hg
Systolic arterial pressure, percent in parentheses (decrease from initial) [5, 13]: 23%
Systolic arterial pressure [5, 14]: 153 mm Hg
Systolic arterial pressure, percent in parentheses (decrease from initial) [5, 15]: 22%
Systolic arterial pressure [5, 16]: 168 mm Hg
Systolic arterial pressure, percent in parentheses (decrease from initial) [5, 17]: 14%
Systolic arterial pressure, 5th day [6, 18]: 166 mm Hg
Systolic arterial pressure, 8th day [6, 18]: 157 mm Hg
Systolic arterial pressure, 10th day [6, 18]: 177.8 mm Hg
Systolic arterial pressure, 1st day after administration ([6]; p.o. once a day, benzyl 40 mg/kg (initial 195.8), allyl 50 mg/kg (initial 176.6), nifedipine dose not given (initial 184.0)): 148.6 mm Hg
Systolic arterial pressure, 2nd day before administration [6, 19]: 167.8 mm Hg
Systolic arterial pressure, 3rd day after administration [6, 19]: 157.4 mm Hg
Systolic arterial pressure, 4th day after administration [6, 19]: 155 mm Hg
Systolic arterial pressure, 4th day before administration [6, 19]: 156 mm Hg
Systolic arterial pressure, 3rd day before administration ([6]; p.o. once a day, benzyl 40 mg/kg, nifedipine dose not given): 153 mm Hg
Percent in parentheses (change of systolic pressure from initial), 1st day after administration [6, 20]: 24%
Percent in parentheses (change of systolic pressure from initial), 2nd day before administration [6, 20]: 14%
Percent in parentheses (change of systolic pressure from initial), 3rd day after administration [6, 20]: 20%
Percent in parentheses (change of systolic pressure from initial), 4th day after administration [6, 20]: 21%
Percent in parentheses (change of systolic pressure from initial), 4th day before administration [6, 20]: 20%
Percent in parentheses (change of systolic pressure from initial), 5th day [6, 20]: 15%
Percent in parentheses (change of systolic pressure from initial), 8th day [6, 20]: 20%
Percent in parentheses (change of systolic pressure from initial), 10th day [6, 20]: 9%
Percent in parentheses (change of systolic pressure from initial), 3rd day before administration ([6]; p.o., benzyl 40 mg/kg, nifedipine dose not given): 22%
LD50 at 336 h [1]: 8100 mg/kg
Relative toxicity with respect to quinidine (LD50 / LD50 of quinidine) (white mice): 51.9
Dose of calcium chloride causing arrhythmia ([2]; compound dose 5 mg/kg i.p.): 90.9
Dose of calcium chloride causing heart arrest ([2]; compound dose 5 mg/kg i.p.): 103.0
Dose of calcium chloride causing arrhythmia ([2]; compound dose 25 mg/kg i.p.): 111.0
Dose of calcium chloride causing heart arrest ([2]; compound dose 25 mg/kg i.p.): 112.0

CC[N+](C)(C)NCCC(=O)[O-] [3-(2,2-dimethyl-2-ethylhydrazinium)propionate monohydrate]
Average variation of the diastolic arterial pressure [4, 7]: -2 % of the initial
Average variation of the systolic arterial pressure [4, 7]: -5 % of the initial
Average variation of the diastolic arterial pressure [4, 8]: -17 % of the initial
Average variation of the systolic arterial pressure [4, 8]: -11 % of the initial
Average variation of the diastolic arterial pressure [4, 9]: -22 % of the initial
Average variation of the systolic arterial pressure [4, 9]: -13 % of the initial
Average variation of the diastolic arterial pressure [4, 10]: -23 % of the initial
Average variation of the systolic arterial pressure [4, 10]: -18 % of the initial
Average variation of the diastolic arterial pressure ([4]; 24 hours, 50 mg/kg i.p.): -25 % of the initial
Average variation of the systolic arterial pressure ([4]; 24 hours, 50 mg/kg i.p.): -18 % of the initial
Systolic arterial pressure ([5]; 1 hour after single p.o.): 185 mm Hg
Systolic arterial pressure, percent in parentheses (decrease from initial) [5, 11]: 7%
Systolic arterial pressure [5, 12]: 190 mm Hg
Systolic arterial pressure, percent in parentheses (decrease from initial) [5, 13]: 4%
Systolic arterial pressure [5, 14]: 193 mm Hg
Systolic arterial pressure, percent in parentheses (decrease from initial) [5, 15]: 3%
Systolic arterial pressure [5, 16]: 191 mm Hg
Systolic arterial pressure, percent in parentheses (decrease from initial) [5, 17]: 4%
LD50 at 336 h [1]: 2300 mg/kg
Relative toxicity with respect to quinidine (LD50 / LD50 of quinidine) (white mice): 14.7
Dose of calcium chloride causing arrhythmia ([2]; compound dose 5 mg/kg i.p.): 83.0
Dose of calcium chloride causing heart arrest ([2]; compound dose 5 mg/kg i.p.): 95.0
Dose of calcium chloride causing arrhythmia ([2]; compound dose 25 mg/kg i.p.): 91.0
Dose of calcium chloride causing heart arrest ([2]; compound dose 25 mg/kg i.p.): 98.0
Efficiency (animals with ectopic contractions reduced by 50% and more) ([3]; 3.0 mg/kg intravenously): 1/4
Efficiency (animals with ectopic contractions reduced by 50% and more) ([3]; 10.0 mg/kg intravenously): 2/4
Efficiency (animals with ectopic contractions reduced by 50% and more) ([3]; 20.0 mg/kg intravenously): 4/5
ED50 [3]: 8.2 mg/kg

C[N+](C)(CCc1ccccc1)NCCC(=O)[O-] [3-(2,2-dimethyl-2-phenylethylhydrazinium)propionate dihydrate]
LD50 at 336 h [1]: 1850 mg/kg
Relative toxicity with respect to quinidine (LD50 / LD50 of quinidine) (white mice): 11.8
Dose of calcium chloride causing arrhythmia ([2]; compound dose 5 mg/kg i.p.): 88.7
Dose of calcium chloride causing heart arrest ([2]; compound dose 5 mg/kg i.p.): 115.6
Dose of calcium chloride causing arrhythmia ([2]; compound dose 15 mg/kg i.p.): 110.5
Dose of calcium chloride causing heart arrest ([2]; compound dose 15 mg/kg i.p.): 142.5
Efficiency (animals with ectopic contractions reduced by 50% and more) ([3]; 10.0 mg/kg intravenously): 3/5
Efficiency (animals with ectopic contractions reduced by 50% and more) ([3]; 20.0 mg/kg intravenously): 4/5
ED50 [3]: 7.8 mg/kg
